Test system: subjects with moderate-to-severe plaque psoriasis
Test: Safety, adverse events, Example 2 through Week 56
Assay type: in vivo, human
Details: 100 mg BID
Text: The LTE safety analysis was based on randomized participants in Example who entered the present long-term extension study and received at least one dose of study intervention (including a partial dose) during the study period.

CC(=O)NCCCC[C@@H]1NC(=O)[C@H](Cc2c[nH]c3c(C)cccc23)NC(=O)[C@H]([C@@H](C)O)NC(=O)[C@H](CC(N)=O)NC(=O)[C@@H](NC(C)=O)C(C)(C)SSC(C)(C)[C@@H](C(=O)N[C@@H](Cc2ccc(OCCN)cc2)C(=O)N[C@@H](Cc2ccc3ccccc3c2)C(=O)NC2(C(=O)N[C@@H](CCC(=O)O)C(=O)N[C@@H](CC(N)=O)C(=O)N[C@@H](Cc3cccnc3)C(=O)N(C)CC(N)=O)CCOCC2)NC1=O [IL-23 receptor antagonist peptide, Ac-[Pen]*-N-T-[W(7-Me)]-[Lys(Ac)]-[Pen]*-Phe[4-(2-aminoethoxy)]-[2-Nal]-[THP]-E-N-[3-Pal]-Sarc-NH2 (*[Pen]-[Pen]* formdisulfidebond)]
Subjects with treatment-emergent AE: Headache (Week 16-56): 0 | Subjects with treatment-emergent AE: Investigations (Week 16-56): 4 | Subjects with treatment-emergent AE: Meniscus injury (Week 16-56): 0 | Subjects with treatment-emergent AE: Sinusitis (Week 16-56): 0 | Subjects with treatment-emergent AE: Vomiting (Week 16-56): 0 | Subjects with treatment-emergent serious AE: Cardiac disorders (Week 16-56): 0 | Subjects with treatment-emergent serious AE: Cerebrovascular accident (Week 16-56): 0 | Subjects with treatment-emergent serious AE: Coronary artery disease (Week 16-56): 0 | Subjects with treatment-emergent serious AE: Diverticulitis (Week 16-56): 0 | Subjects with treatment-emergent serious AE: Foot deformity (Week 16-56): 0 | Subjects with treatment-emergent serious AE: General disorders and administration site conditions (Week 16-56): 0 | Subjects with treatment-emergent serious AE: Infections and infestations (Week 16-56): 0 | Subjects with treatment-emergent serious AE: Injury, poisoning and procedural complications (Week 16-56): 0 | Subjects with treatment-emergent serious AE: Intervertebral disc protrusion (Week 16-56): 0 | Subjects with treatment-emergent serious AE: Ligament injury (Week 16-56): 0 | Subjects with treatment-emergent serious AE: Musculoskeletal and connective tissue disorders (Week 16-56): 0 | Subjects with treatment-emergent serious AE: Nervous system disorders (Week 16-56): 0 | Subjects with treatment-emergent serious AE: Non-cardiac chest pain (Week 16-56): 0 | Subjects with treatment-emergent serious AE: Respiratory, thoracic and mediastinal disorders (Week 16-56): 0 | Subjects with treatment-emergent serious AE: Tonsillar hypertrophy (Week 16-56): 0 | Subjects with treatment-emergent serious AE: Ventricular dysfunction (Week 16-56): 0 | Acrochordon: number of subjects (through Week 56): 0 | Actinic keratosis: number of subjects (through Week 56): 0 | Alopecia: number of subjects (through Week 56): 0 | Asthenia: number of subjects (through Week 56): 0 | Asthma: number of subjects (through Week 56): 0 | Atrioventricular block first degree: number of subjects (through Week 56): 0 | Basal cell carcinoma: number of subjects (through Week 56): 0 | Blood and lymphatic system disorders: % of subjects (through Week 56): (2.4%) | Blood and lymphatic system disorders: number of subjects (through Week 56): 1 | Bronchitis chronic: number of subjects (through Week 56): 0 | Bundle branch block right: % of subjects (through Week 56): (2.4%) | Bundle branch block right: number of subjects (through Week 56): 1 | Cardiac disorders: % of subjects (through Week 56): (2.4%) | Cardiac disorders: number of subjects (through Week 56): 1 | Chills: number of subjects (through Week 56): 0 | Cholelithiasis: number of subjects (through Week 56): 0 | Chronic obstructive pulmonary disease: number of subjects (through Week 56): 0 | Coronary artery disease: number of subjects (through Week 56): 0 | Cough: % of subjects (through Week 56): (4.8%) | Cough: number of subjects (through Week 56): 2 | Decreased appetite: number of subjects (through Week 56): 0 | Depression: % of subjects (through Week 56): (2.4%) | Depression: number of subjects (through Week 56): 1 | Dermal cyst: number of subjects (through Week 56): 0 | Dermatitis acneiform: number of subjects (through Week 56): 0 | Dermatitis contact: % of subjects (through Week 56): (2.4%) | Dermatitis contact: number of subjects (through Week 56): 1 | Diabetes mellitus: number of subjects (through Week 56): 0 | Diffuse alopecia: number of subjects (through Week 56): 0 | Dysuria: number of subjects (through Week 56): 0 | Ear and labyrinth disorders: % of subjects (through Week 56): (2.4%) | Ear and labyrinth disorders: number of subjects (through Week 56): 1 | Endocrine disorders: number of subjects (through Week 56): 0 | Eye disorders: number of subjects (through Week 56): 0 | Eyelid skin dryness: number of subjects (through Week 56): 0 | Fatigue: % of subjects (through Week 56): (4.8%) | Fatigue: number of subjects (through Week 56): 2 | General disorders and administration site conditions: % of subjects (through Week 56): (9.5%) | General disorders and administration site conditions: number of subjects (through Week 56): 4 | Goiter: number of subjects (through Week 56): 0 | Haemochromatosis: number of subjects (through Week 56): 0 | Hand dermatitis: number of subjects (through Week 56): 0 | Hematuria: number of subjects (through Week 56): 0 | Hepatobiliary disorders: number of subjects (through Week 56): 0 | Hypercholesterolemia: number of subjects (through Week 56): 0 | Hyperglycemia: % of subjects (through Week 56): (4.8%) | Hyperglycemia: number of subjects (through Week 56): 2 | Hyperlipidemia: number of subjects (through Week 56): 0 | Hypertension: % of subjects (through Week 56): (4.8%) | Hypertension: number of subjects (through Week 56): 2 | Hypertransaminasemia: number of subjects (through Week 56): 0 | Hypertriglyceridemia: number of subjects (through Week 56): 0 | Hypoacusis: % of subjects (through Week 56): (2.4%) | Hypoacusis: number of subjects (through Week 56): 1 | Immune system disorders: % of subjects (through Week 56): (2.4%) | Immune system disorders: number of subjects (through Week 56): 1 | Influenza like illness: number of subjects (through Week 56): 0 | Insomnia: number of subjects (through Week 56): 0 | Intertrigo: % of subjects (through Week 56): (2.4%) | Intertrigo: number of subjects (through Week 56): 1 | Ketonuria: % of subjects (through Week 56): (2.4%) | Ketonuria: number of subjects (through Week 56): 1 | Leukocyturia: number of subjects (through Week 56): 0 | Leukopenia: number of subjects (through Week 56): 0 | Libido decreased: number of subjects (through Week 56): 0 | Liver disorder: number of subjects (through Week 56): 0 | Lymphopenia: number of subjects (through Week 56): 0 | Menopause: number of subjects (through Week 56): 0 | Metabolism and nutrition disorders: % of subjects (through Week 56): (4.8%) | Metabolism and nutrition disorders: number of subjects (through Week 56): 2 | Neoplasms benign, malignant and unspecified (incl cysts and polyps): % of subjects (through Week 56): (4.8%) | Neoplasms benign, malignant and unspecified (incl cysts and polyps): number of subjects (through Week 56): 2 | Nephrolithiasis: number of subjects (through Week 56): 0 | Neutropenia: number of subjects (through Week 56): 0 | Night sweats: number of subjects (through Week 56): 0 | Non-cardiac chest pain: number of subjects (through Week 56): 0 | Ocular cyst: number of subjects (through Week 56): 0 | Oedema peripheral: % of subjects (through Week 56): (4.8%) | Oedema peripheral: number of subjects (through Week 56): 2 | Oropharyngeal pain: number of subjects (through Week 56): 0 | Procedural pain: % of subjects (through Week 56): (2.4%) | Procedural pain: number of subjects (through Week 56): 1 | Productive cough: % of subjects (through Week 56): (2.4%) | Productive cough: number of subjects (through Week 56): 1 | Proteinuria: % of subjects (through Week 56): (2.4%) | Proteinuria: number of subjects (through Week 56): 1 | Pruritus: number of subjects (through Week 56): 0 | Psoriasis: % of subjects (through Week 56): (4.8%) | Psoriasis: number of subjects (through Week 56): 2 | Psychiatric disorders: % of subjects (through Week 56): (2.4%) | Psychiatric disorders: number of subjects (through Week 56): 1 | Pyrexia: % of subjects (through Week 56): (2.4%) | Pyrexia: number of subjects (through Week 56): 1 | Rash pruritic: number of subjects (through Week 56): 0 | Renal and urinary disorders: % of subjects (through Week 56): (4.8%) | Renal and urinary disorders: number of subjects (through Week 56): 2 | Renal mass: number of subjects (through Week 56): 0 | Respiratory, thoracic and mediastinal disorders: % of subjects (through Week 56): (9.5%) | Respiratory, thoracic and mediastinal disorders: number of subjects (through Week 56): 4 | Retinal vein occlusion: number of subjects (through Week 56): 0
